Data on 24 molecules can be found in US20210070748A1, “INHIBITORS OF BRUTONS TYROSINE KINASE” (Pharmacyclics LLC, priority 2015, published 2021).

The test addresses T1, BTK-WT (Homo sapiens, UniProt Q06187).
T1 construct: purified from insect cells as a full-length construct containing an N-terminal 6X-His tag; His6 (N); made in house; host or cells: insect cells (baculovirus Sf21 in Method B)
Briefly: Btk in vitro inhibitory activity (one of Method A TR-FRET, Method B electrophoretic mobility shift, Method C radiometric filter binding). The format is biochemical. Conditions: read-out: BTK-WT (IC50). The protocol: Btk kinase activity is determined using a time-resolved fluorescence resonance energy transfer (TR-FRET) methodology. Measurements are performed in a reaction volume of 50 μL using 96-well assay plates. […] The reaction is quenched by the addition of 1.2 equivalents of EDTA (relative to divalent cation) in 25 μL of 1× Lance buffer (Perkin-Elmer). […] The TR-FRET signal is measured on a multimode plate reader with an excitation wavelength (λEx) of 330 nm and detection wavelengths (λEm) of 615 and 665 nm. Activity is determined by the ratio of the fluorescence at 665 nm to that at 615 nm. For each compound, enzyme activity is measured at various concentrations of compound. Negative control reactions are performed in the absence of inhibitor in replicates of six, and two no-enzyme controls are used to determine baseline fluorescence levels. Inhibition constants, Ki(app), were obtained using the program BatchKi(Kuzmic et al. (2000), Anal. Biochem. 286:45-50). IC50s are obtained according to the equation:
IC50={Ki(app)/(1+[ATP]/Km^ATP)}+[E]total/2;
Kinase activity is measured in vitro using electrophoretic mobility shift assay. The kinase reactions are assembled in a total volume of 25 μL in 384 well plates. […] The reaction is incubated for one hour and is quenched by the addition of 45 μL of termination buffer (100 mM HEPES, pH7.5, 0.01% Triton X-100, 30 mM EDTA). The terminated reactions are analyzed using 12 channel LabChip® 3000 microfluidic detection instrument (Caliper Life Sciences). […] Change in the relative fluorescence intensity of the substrate and product peaks is the parameter measured, reflecting enzyme activity. In the presence of an inhibitor, the ratio between product and substrate is altered: the signal of the product decreases, while the signal of the substrate increases.
Activity in each sample is determined as the product to sum ratio (PSR): P/(S+P), where P is the peak height of the product peptide and S is the peak height of the substrate peptide. For each compound, enzyme activity is measured at various concentrations (12 concentrations of compound spaced by 3× dilution intervals). Negative control samples (0%-inhibition in the absence of inhibitor) and positive control samples (100%-inhibition, in the presence of 20 mM EDTA) are assembled in replicates of four and are used to calculate %-inhibition values for each inhibitor at each concentration. Percent inhibition (Pinh) is determined using following equation:
Pinh=(PSR0%-PSRinh)/(PSR0%−PSR100%)*100, where PSRinh is the product sum ratio in the presence of inhibitor, PSR0% is the average product sum ration in the absence of inhibitor and PSR100% is the average product sum ratio in 100%-inhibition control samples;
The IC50 values of inhibitors are determined by 4 parameter sigmoidal dose-response model fitting of the inhibition curves (Pinh versus inhibitor concentration) using XLfit 4 software.
Human Btk kinase (Genbank accession # NP_000052) was purified from insect cells as a full-length construct containing an N-terminal 6X-His tag. Btk kinase activity was determined using a radiometric filter binding assay. Measurements are performed in a low μL reaction volume 384-well assay plates. […] IC50 values and curve fits were obtained using Prism (GraphPad Software).
Background: A gel shift assay detects complexes by their altered migration in electrophoresis.

Where two headings read alike, the source gives them in different places.

T1 sequence (Q06187 whole entry): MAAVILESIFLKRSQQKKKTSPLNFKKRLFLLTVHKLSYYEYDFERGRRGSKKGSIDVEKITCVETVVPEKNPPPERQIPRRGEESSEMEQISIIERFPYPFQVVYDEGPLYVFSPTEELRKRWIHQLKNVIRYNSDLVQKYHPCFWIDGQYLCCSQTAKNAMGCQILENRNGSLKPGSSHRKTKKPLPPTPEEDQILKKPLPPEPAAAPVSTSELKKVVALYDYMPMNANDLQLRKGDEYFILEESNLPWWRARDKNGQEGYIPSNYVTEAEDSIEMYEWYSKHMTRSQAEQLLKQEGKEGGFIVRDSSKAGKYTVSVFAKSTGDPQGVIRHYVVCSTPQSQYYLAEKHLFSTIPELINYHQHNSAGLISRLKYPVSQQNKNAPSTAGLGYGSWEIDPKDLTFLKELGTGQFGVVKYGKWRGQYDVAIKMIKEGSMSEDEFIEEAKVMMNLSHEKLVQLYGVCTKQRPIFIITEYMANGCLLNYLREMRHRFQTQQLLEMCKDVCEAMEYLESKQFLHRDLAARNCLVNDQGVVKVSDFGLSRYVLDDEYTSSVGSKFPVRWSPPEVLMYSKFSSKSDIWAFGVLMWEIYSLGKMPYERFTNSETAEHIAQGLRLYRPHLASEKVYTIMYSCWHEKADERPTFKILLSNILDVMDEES

The term IC50 denotes the midpoint of a concentration-inhibition curve. `C=CC(=O)N1CCC[C@@H](Nc2nnc(C(N)=O)c(Nc3ccc(C(C)C)cc3)n2)[C@H]1C` [Example C-28, 3-((2R,3R)-1-acryloyl-2-methylpiperidin-3-ylamino)-5-(4-isopropylphenylamino)-1,2,4-triazine-6-carboxamide]: under “Table 12, Formula C-I”, the IC50 is at most 100 nM.

As to `C=CC(=O)N[C@H]1CCC[C@@H](Nc2nnc(C(N)=O)c(Nc3ccc(C(C)C)cc3)n2)C1` (racemic) [Example B-12, 3-((1R,3S)-3-acrylamido-cyclohexylamino)-5-(4-isopropylphenylamino)-1,2,4-triazine-6-carboxamide], the IC50 (Table 11, Formula B-I) is at most 100 nM. Take `C=CC(=O)N1CCC[C@@H](N(C)c2nnc(C(N)=O)c(Nc3ccc(C(C)C)cc3)n2)C1` [Example C-27, (R)-3-((1-acryloylpiperidin-3-yl)(methyl)amino)-5-(4-isopropylphenylamino)-1,2,4-triazine-6-carboxamide]: the IC50 (Table 12, Formula C-I) was at most 100 nM. The same measure, in the same setting: to `C=CC(=O)N1CCC(CNc2nnc(C(N)=O)c(Nc3ccc(C(C)C)cc3)n2)CC1` [Example C-22, 3-((1-acryloylpiperidin-4-yl)methylamino)-5-(4-isopropylphenylamino)-1,2,4-triazine-6-carboxamide] belongs at most 100 nM. For `C=CC(=O)N[C@@H]1CCCN(c2cnc(C(N)=O)c(Nc3cc(C)ns3)n2)C1` [Example A-86, (R)-5-(3-acrylamidopiperidin-1-yl)-3-(3-methylisothiazol-5-ylamino)pyrazine-2-carboxamide], the half-maximal inhibitory concentration (IC50) (Table 10, Formula A-I) is at most 100 nM.

`C=CC(=O)N[C@@H]1CCCN(c2cnc(C(N)=O)c(Nc3cccc(-c4ncccn4)c3)n2)C1` [Example A-88, (R)-5-(3-acrylamidopiperidin-1-yl)-3-(3-(pyrimidin-2-yl)phenylamino)pyrazine-2-carboxamide]: for the setting “Table 10, Formula A-I”, the half-maximal inhibitory concentration (IC50) was 100 to 1000 nM. In the case of `C=CC(=O)N1CCC(CN(C)c2cnc(C(N)=O)c(Nc3ccc(C(C)C)cc3)n2)CC1` [Example C-24, 5-(((1-acryloylpiperidin-4-yl)methyl)(methyl)amino)-3-(4-isopropylphenylamino)pyrazine-2-carboxamide], under “Table 12, Formula C-I”, the IC50 is at most 100 nM. Same read-out and setting: the value for `C=CC(=O)N1CCC[C@H](N(C)c2cnc(C(N)=O)c(Nc3ccc(C(C)C)cc3)n2)C1` [Example C-23, (S)-5-((1-acryloylpiperidin-3-yl)(methyl)amino)-3-(4-isopropylphenylamino)pyrazine-2-carboxamide] was at most 100 nM. Turning to `C=CC(=O)N[C@@H]1CCCC[C@@H]1Nc1nnc(C(N)=O)c(Nc2ccc(C(C)C)cc2)n1` [Example B-10, 3-((1S,2R)-2-acrylamido-cyclohexylamino)-5-(4-isopropylphenylamino)-1,2,4-triazine-6-carboxamide], under “Table 11, Formula B-I”, the IC50 was at most 100 nM.

As to `C=CC(=O)NCCCC(=O)N1CCC[C@H](Nc2nnc(C(N)=O)c(Nc3ccc(C(C)C)cc3)n2)C1` [Example C-21, (S)-3-(1-(4-acrylamidobutanoyl)piperidin-3-ylamino)-5-(4-isopropylphenylamino)-1,2,4-triazine-6-carboxamide], the IC50 (Table 12, Formula C-I) fell in the range of 100 to 1000 nM. As to `C=CC(=O)N1CCC[C@H](N(C)c2cnc(C(N)=O)c(Nc3cc(-c4ccccc4)ns3)n2)C1` [Example C-25, (S)-5-((1-acryloylpiperidin-3-yl)(methyl)amino)-3-(3-phenylisothiazol-5-ylamino)pyrazine-2-carboxamide], for the setting “Table 12, Formula C-I”, the half-maximal inhibitory concentration (IC50) was at most 100 nM.

Take `C=CC(=O)N[C@H]1CCCN(c2cnc(C(N)=O)c(Nc3ccc(-c4ncccn4)cc3)n2)C1` [Example A-89, (S)-5-(3-acrylamidopiperidin-1-yl)-3-(4-(pyrimidin-2-yl)phenylamino)pyrazine-2-carboxamide]: the IC50 (Table 10, Formula A-I) was at most 100 nM.

Take `C=CC(=O)N[C@H]1CCCN(c2cnc(C(N)=O)c(Nc3cc(C)ns3)n2)C1` [Example A-87, (S)-5-(3-acrylamidopiperidin-1-yl)-3-(3-methylisothiazol-5-ylamino)pyrazine-2-carboxamide]: the IC50 (Table 10, Formula A-I) is at most 100 nM. Regarding `C=CC(=O)N[C@H]1CCCC[C@H]1Nc1nnc(C(N)=O)c(Nc2ccc(C(C)C)cc2)n1` [Example B-7, 3-((1R,2S)-2-acrylamido-cyclohexylamino)-5-(4-isopropylphenylamino)-1,2,4-triazine-6-carboxamide], under “Table 11, Formula B-I”, the IC50 is at most 100 nM. Turning to `C=CC(=O)N1CCCN(c2nnc(C(N)=O)c(Nc3ccc(C(C)C)cc3)n2)CC1` [Example A-90, 3-(4-acryloyl-1,4-diazepan-1-yl)-5-(4-isopropylphenylamino)-1,2,4-triazine-6-carboxamide], the half-inhibitory concentration (IC50) (Table 10, Formula A-I) is at most 100 nM. `CC(C)c1ccc(Nc2nc(N[C@H]3CCCN(C(=O)CCCN)C3)nnc2C(N)=O)cc1` [Example C-20, (S)-3-(1-(4-aminobutanoyl)piperidin-3-ylamino)-5-(4-isopropylphenylamino)-1,2,4-triazine-6-carboxamide]: the IC50 (Table 12, Formula C-I) lay within 100 to 1000 nM. `CC(C)c1ccc(Nc2nc(N[C@H]3CCCN(C(=O)CN)C3)nnc2C(N)=O)cc1` [Example C-18, (S)-3-(1-(2-aminoacetyl)piperidin-3-ylamino)-5-(4-isopropylphenylamino)-1,2,4-triazine-6-carboxamide]: under “Table 12, Formula C-I”, the half-maximal inhibitory concentration (IC50) is 100 to 1000 nM.

Regarding `C=CC(=O)N1CCC[C@H](Nc2nnc(C(N)=O)c(Nc3ccc(C(C)C)cc3)n2)C1` [Example C-17, (S)-3-(1-acryloylpiperidin-3-ylamino)-5-(4-isopropylphenylamino)-1,2,4-triazine-6-carboxamide], the half-maximal inhibitory concentration (IC50) (Table 12, Formula C-I) is at most 100 nM. Regarding `C=CC(=O)N[C@@H]1CCCC[C@H]1Nc1nnc(C(N)=O)c(Nc2ccc(C(C)C)cc2)n1` [Example B-8, 3-((1R,2R)-2-acrylamido-cyclohexylamino)-5-(4-isopropylphenylamino)-1,2,4-triazine-6-carboxamide], the IC50 (Table 11, Formula B-I) was at most 100 nM.

`C=CC(=O)N1CCC[C@@H](Nc2nnc(C(N)=O)c(Nc3ccc(C(C)C)cc3)n2)C1` [Example C-26, (R)-3-(1-acryloylpiperidin-3-ylamino)-5-(4-isopropylphenylamino)-1,2,4-triazine-6-carboxamide]: under “Table 12, Formula C-I”, the IC50 was at most 100 nM.

On to `C=CC(=O)N(C)[C@H]1CC[C@H](N(C)c2cnc(C(N)=O)c(Nc3cc(C)ns3)n2)CC1` [Example B-6, 5-(methyl((1r,4r)-4-(N-methylacrylamido)cyclohexyl)amino)-3-(3-methylisothiazol-5-ylamino)pyrazine-2-carboxamide], for which the IC50 (Table 11, Formula B-I) is at most 100 nM.

Turning to `C=CC(=O)N[C@H]1CCCC[C@@H]1Nc1nnc(C(N)=O)c(Nc2ccc(C(C)C)cc2)n1` [Example B-9, 3-((1S,2S)-2-acrylamido-cyclohexylamino)-5-(4-isopropylphenylamino)-1,2,4-triazine-6-carboxamide], the IC50 (Table 11, Formula B-I) is at most 100 nM. In the case of `C=CC(=O)NCC(=O)N1CCC[C@H](Nc2nnc(C(N)=O)c(Nc3ccc(C(C)C)cc3)n2)C1` [Example C-19, (S)-3-(1-(2-acrylamidoacetyl)piperidin-3-ylamino)-5-(4-isopropylphenylamino)-1,2,4-triazine-6-carboxamide], under “Table 12, Formula C-I”, the 50% inhibitory concentration (IC50) was 100 to 1000 nM. For `C=CC(=O)N[C@@H]1CCC[C@@H](Nc2nnc(C(N)=O)c(Nc3ccc(C(C)C)cc3)n2)C1` (racemic) [Example B-11, 3-((1R,3R)-3-acrylamido-cyclohexylamino)-5-(4-isopropylphenylamino)-1,2,4-triazine-6-carboxamide], for the setting “Table 11, Formula B-I”, the concentration for half-maximal inhibition (IC50) is at most 100 nM.
